Test results published in US7829665B2 (priority 2005, dated 2010).
Read-outs that look alike come from different tables or passages of the source.

Key:
[1] = target: T1, full-length NS3/NS4A-2 (HCV NS3 protease) (Hepatitis C virus genotype 1a, UniProt P27958); test: NS3-NS4 protease assay / NS3 inhibition assay (RETS1 substrate, fluorescence kinetic read); format: biochemical
T1 construct: Recombinant E. coli or Baculovirus full-length NS3 was diluted to 3.33 μM with assay buffer; made in house; host or cells: E. coli or baculovirus (BV) expression system
T1 sequence (P27958 1027-1657): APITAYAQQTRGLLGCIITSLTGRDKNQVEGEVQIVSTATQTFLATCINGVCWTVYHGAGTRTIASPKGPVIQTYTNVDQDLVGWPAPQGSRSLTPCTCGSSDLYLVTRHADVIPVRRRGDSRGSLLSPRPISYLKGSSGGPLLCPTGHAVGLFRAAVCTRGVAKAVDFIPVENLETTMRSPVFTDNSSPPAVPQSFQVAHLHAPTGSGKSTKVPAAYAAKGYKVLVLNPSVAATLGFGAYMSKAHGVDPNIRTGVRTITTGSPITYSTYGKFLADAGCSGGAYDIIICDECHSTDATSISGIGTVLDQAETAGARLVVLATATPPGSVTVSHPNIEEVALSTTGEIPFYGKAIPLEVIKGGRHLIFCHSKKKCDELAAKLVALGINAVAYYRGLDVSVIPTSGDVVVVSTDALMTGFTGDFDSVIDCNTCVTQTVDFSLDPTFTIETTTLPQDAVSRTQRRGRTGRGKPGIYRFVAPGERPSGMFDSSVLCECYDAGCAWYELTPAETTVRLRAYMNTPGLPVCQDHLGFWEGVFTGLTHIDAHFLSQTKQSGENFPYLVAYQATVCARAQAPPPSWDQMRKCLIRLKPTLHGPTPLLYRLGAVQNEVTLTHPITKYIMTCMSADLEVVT
Method in brief: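 Full-length NS3 from E. coli (2 nM in assay) or baculovirus (3 nM) was precomplexed with excess NS4A-2 peptide, then preincubated 10 min at room temperature with serially diluted compounds starting at 50 microM. Reaction was started with RETS1 substrate at 8 μM before addition and read kinetically for 30 min (ex 335/em 495 nm). Four-parameter IC50s were converted to Ki by Cheng-Prusoff using Km 2.03 μM (E. coli) or 1.74 μM (BV).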

[2] = tested on: HCV sub-genomic replicon in GS4.3 cells (HuH-7 hepatoma cells); test: Quantitation by ELISA of Neomycin phosphotransferase II (NPTII) in the HCV sub-genomic replicon, GS4.3; format: cell-based, hepatitis C virus; settings: Hepatitis C virus, Huh-7
Method in brief: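 HuH-7 GS4.3 cells carrying HCV sub-genomic replicon 1377/NS3-3′, treated 72 h at 37 °C without G418 with 3-fold dilutions from 10 μM to 56 pM (1% DMSO). NPTII in cell lysates measured by direct ELISA with TMB readout at 450 nm. EC50 from 4-parameter fit of percent DMSO-control signal.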

[3] = recombinant E. coli or Baculovirus full-length NS3 with NS4A-2, read-out: NS3-NS4 IC50
[4] = GS4.3 cells, 72 h incubation, NPTII ELISA, read-out: Replicon EC50

Compound | IC50 [1, 3] | EC50 [2, 4] | EC50 ([2]; Table 26, read-out: EC50) | IC50 [1]
Cc1cc(CN[C@H]2CCCCC/C=C\[C@@H]3C[C@@]3(C(=O)NS(=O)(=O)C3CC3)NC(=O)[C@@H]3C[C@@H](OC(=O)N4Cc5cccc(F)c5C4)CN3C2=O)oc1C [Compound 915] | < 100 nM | < 100 nM |  | 
O=C(N[C@H]1CCCCC/C=C\[C@@H]2C[C@@]2(C(=O)NS(=O)(=O)C2CCCCC2)NC(=O)[C@@H]2C[C@@H](OC(=O)N3CCc4ccccc4C3)CN2C1=O)OC1CCCC1 [Compound 189] | < 100 nM | < 1000 nM |  | 
CC(C)(C)NC(=O)N[C@H]1CCCCC/C=C\[C@@H]2C[C@@]2(C(=O)O)NC(=O)C2C[C@@H](OC(=O)N3Cc4cccc(Cl)c4C3)CN2C1=O (some centres unmarked) [Compound 177] | < 100 nM | < 10000 nM |  | 
CC(C)(C)OC(=O)N[C@H]1CCCCC/C=C\[C@@H]2C[C@@]2(C(=O)Nc2cc(C3CC3)[nH]n2)NC(=O)[C@@H]2C[C@@H](OC(=O)N3Cc4cccc(F)c4C3)CN2C1=O [Compound 630] | < 1000 nM | < 10000 nM |  | 
CC(C)OC(=O)N[C@H]1CCCCC/C=C\[C@@H]2C[C@@]2(C(=O)NC#N)NC(=O)C2C[C@@H](OC(=O)N3Cc4cccc(F)c4C3)CN2C1=O (some centres unmarked) [Compound 639] | < 1000 nM | > 10000 nM |  | 
O=C(Cc1ccccc1)N[C@H]1CCCCC/C=C\[C@@H]2C[C@@]2(C(=O)NS(=O)(=O)C2CC2)NC(=O)C2CCCN2C1=O (some centres unmarked) [Compound 2144] | > 10000 nM |  | < 1000 nM | 
O=C(N[C@H]1CCCCC/C=C\[C@@H]2C[C@@]2(C(=O)NS(=O)(=O)C2CCCC2)NC(=O)[C@@H]2C[C@@H](OC(=O)N3CCc4ccccc4C3)CN2C1=O)OC1CCCC1 [Compound 186] | < 100 nM | < 1000 nM |  | 
O=C1N[C@]2(C(=O)NCC3CC3)C[C@H]2/C=C\CCCCC[C@H](Nc2c(N3CCC3)c(=O)c2=O)C(=O)N2C[C@H](OC(=O)N3Cc4cccc(F)c4C3)C[C@@H]12 [Compound 647] | < 100 nM | < 10000 nM |  | 
N[C@H]1CCCCC/C=C\[C@@H]2C[C@@]2(C(=O)NS(=O)(=O)N2CCCC2)NC(=O)[C@@H]2C[C@@H](OC(=O)N3Cc4cccc(Cl)c4C3)CN2C1=O [Compound 220] |  | < 1000 nM |  | < 100 nM
CC(C)(C)c1c(N[C@H]2CCCCC/C=C\[C@@H]3C[C@@]3(C(=O)NS(=O)(=O)C3CC3)NC(=O)[C@@H]3C[C@@H](OC(=O)N4Cc5cccc(F)c5C4)CN3C2=O)c(=O)c1=O [Compound 261] | < 100 nM | < 1000 nM |  | 
CN(C)S(=O)(=O)NC(=O)[C@@]12C[C@H]1/C=C\CCCCC[C@H](NC(=O)OC1CCCC1)C(=O)N1C[C@H](OC(=O)N3Cc4cccc(F)c4C3)C[C@H]1C(=O)N2 [Compound 215] | < 100 nM | < 100 nM |  | 
CC(C)(C)OC(=O)N[C@H]1CCCCC/C=C\[C@@H]2C[C@@]2(C(=O)O)NC(=O)[C@@H]2C[C@@H](OC(=O)N3Cc4ccc(F)cc4C3)CN2C1=O [Compound 109] | < 100 nM | < 10000 nM |  | 
O=C(N[C@H]1CCCCC/C=C\[C@@H]2C[C@@]2(C(=O)O)NC(=O)[C@@H]2C[C@@H](OC(=O)N3Cc4ccncc4C3)CN2C1=O)OC1CCCC1 [Compound 146] | < 100 nM | > 10000 nM |  | 
CC(C)(C)OC(=O)N[C@H]1CCC(F)(F)CC/C=C\[C@@H]2C[C@@]2(C(=O)O)NC(=O)[C@@H]2C[C@@H](OC(=O)N3Cc4cccc(F)c4C3)CN2C1=O [Compound 1001] | < 100 nM | < 10000 nM |  | 
CC(C)(C)C(=O)N[C@H]1CCCCC/C=C\[C@@H]2C[C@@]2(C(=O)NC#N)NC(=O)C2C[C@@H](OC(=O)N3Cc4cccc(F)c4C3)CN2C1=O (some centres unmarked) [Compound 640] | < 100 nM | > 10000 nM |  | 
O=C1N[C@]2(C(=O)NS(=O)(=O)C3CC3)C[C@H]2/C=C\CCCCC[C@H](NC(=S)NC2CCCC2)C(=O)N2C[C@H](OC(=O)N3Cc4cccc(F)c4C3)C[C@@H]12 [Compound 240] | < 100 nM | < 1000 nM |  | 
O=C1N[C@]2(C(=O)NS(=O)(=O)C3CC3)C[C@H]2/C=C\CCCCC[C@H](Nc2c(NCC(F)(F)F)c(=O)c2=O)C(=O)N2C[C@H](OC(=O)N3Cc4cccc(F)c4C3)C[C@@H]12 [Compound 196] | < 100 nM | < 10000 nM |  | 
CC(C)(C)OC(=O)N[C@H]1CCCCC/C=C\[C@@H]2C[C@@]2(C(=O)NCc2cccc(C(O)C(F)(F)F)c2)NC(=O)[C@@H]2C[C@@H](OC(=O)N3Cc4cccc(F)c4C3)CN2C1=O (some centres unmarked) [Compound 605] | < 1000 nM | < 1000 nM |  | 
O=C(N[C@H]1CCCCC/C=C\[C@@H]2C[C@@]2(C(=O)O)NC(=O)[C@@H]2C[C@@H](OC(=O)N3Cc4cccc(F)c4C3)CN2C1=O)C1CCC1 [Compound 122] | < 100 nM | < 10000 nM |  | 

Compound | IC50 [1, 3] | EC50 [2, 4] | EC50 ([2]; Table 26, read-out: EC50) | IC50 [1]
CC(C)(C)OC(=O)N[C@H]1CCCCC/C=C\[C@@H]2C[C@@]2(C(=O)NCCO)NC(=O)[C@@H]2C[C@@H](OC(=O)N3Cc4cccc(F)c4C3)CN2C1=O [Compound 620] | < 1000 nM | < 10000 nM |  | 
CC(C)(C)OC(=O)N[C@H]1CCCCC/C=C\[C@@H]2C[C@@]2(C(=O)Nc2n[nH]cc2C2CC2)NC(=O)[C@@H]2C[C@@H](OC(=O)N3Cc4cccc(F)c4C3)CN2C1=O [Compound 636] | < 1000 nM | < 100 nM |  | 
CC[C@@H]1C[C@H]2C(=O)N[C@]3(C(=O)NS(=O)(=O)C4CC4)C[C@H]3/C=C\CCCCC[C@H](NC(=O)C3CC3)C(=O)N2C1 [Compound 318] | < 1000 nM | > 10000 nM |  | 
O=C(N[C@H]1CCCCC/C=C\[C@@H]2C[C@@]2(C(=O)NS(=O)(=O)C2CC2)NC(=O)[C@@H]2C[C@@H](OC(=O)N3Cc4ccc(OCCN5CCOCC5)cc4C3)CN2C1=O)OC1CCCC1 [Compound 132] | < 100 nM | < 100 nM |  | 
O=C1N[C@]2(C(=O)NS(=O)(=O)C3CC3)C[C@H]2/C=C\CCCCC[C@H](Nc2nccs2)C(=O)N2C[C@H](OC(=O)N3Cc4cccc(F)c4C3)C[C@@H]12 [Compound 924] | < 100 nM | < 100 nM |  | 
COc1ccc(CC(=O)N[C@H]2CCCCC/C=C\[C@@H]3C[C@@]3(C(=O)NS(=O)(=O)C3CC3)NC(=O)[C@@H]3CCCN3C2=O)cc1 [Compound 2138, (1S,4R,6S,14S)N—((Z)-4-Cyclopropanesulfonylaminocarbonyl-2,15-dioxo-3,16-diaza-tricyclo[14.3.0.0^4,6]nonadec-7-ene-14-yl)-2-(4-methoxy-phenyl)-acetamide] | > 10000 nM |  | < 1000 nM | 
O=C(N[C@H]1CCCCC/C=C\[C@@H]2C[C@@]2(C(=O)NS(=O)(=O)c2cc(Cl)sc2Cl)NC(=O)[C@@H]2C[C@@H](OC(=O)N3Cc4cccc(F)c4C3)CN2C1=O)OC1CCCC1 [Compound 173] | < 100 nM | < 100 nM |  | 
O=C(N[C@H]1CCCCC/C=C\[C@@H]2C[C@@]2(C(=O)NS(=O)(=O)C2CC2)NC(=O)[C@@H]2C[C@@H](OC(=O)N3Cc4cccc(Cl)c4C3)CN2C1=O)OC1CCCC1 [Compound 141] | < 100 nM | < 100 nM |  | 
CC(C)(C)OC(=O)N[C@H]1CCCCC/C=C\[C@@H]2C[C@@]2(C(=O)NCC(F)F)NC(=O)[C@@H]2C[C@@H](OC(=O)N3Cc4cccc(F)c4C3)CN2C1=O [Compound 612] | < 1000 nM | < 1000 nM |  | 
O=C(N[C@H]1CCCCC/C=C\[C@@H]2C[C@@]2(C(=O)NS(=O)(=O)N2CC(F)(F)C2)NC(=O)C2C[C@@H](OC(=O)N3Cc4cccc(Cl)c4C3)CN2C1=O)OC1CCCC1 (some centres unmarked) [Compound 228] | < 100 nM | < 100 nM |  | 
CN(C)CCOc1ccc2c(c1)CN(C(=O)O[C@@H]1C[C@H]3C(=O)N[C@]4(C(=O)NS(=O)(=O)C5CC5)C[C@H]4/C=C\CCCCC[C@H](NC(=O)OC4CCCC4)C(=O)N3C1)C2 [Compound 134] | < 100 nM | < 100 nM |  | 
Cc1ccc(CN[C@H]2CCCCC/C=C\[C@@H]3C[C@@]3(C(=O)NS(=O)(=O)C3CC3)NC(=O)[C@@H]3C[C@@H](OC(=O)N4Cc5cccc(F)c5C4)CN3C2=O)o1 [Compound 909] | < 100 nM | < 100 nM |  | 
CC(C)(C)OC(=O)N[C@H]1CCCCC/C=C\[C@@H]2C[C@@]2(C(=O)NCC2CC2)NC(=O)[C@@H]2C[C@@H](OC(=O)N3Cc4cccc(Cl)c4C3)CN2C1=O [Compound 627] | < 100 nM | < 100 nM |  | 
CC(C)(C)NC(=S)N[C@H]1CCCCC/C=C\[C@@H]2C[C@@]2(C(=O)NS(=O)(=O)C2CC2)NC(=O)[C@@H]2C[C@@H](OC(=O)N3Cc4cccc(F)c4C3)CN2C1=O [Compound 239] | < 100 nM | < 100 nM |  | 
CN(C)C(=O)[C@@]12C[C@H]1/C=C\CCCCC[C@H](NC(=O)OC(C)(C)C)C(=O)N1C[C@H](OC(=O)N3Cc4cccc(F)c4C3)C[C@H]1C(=O)N2 [Compound 610] | < 1000 nM | > 10000 nM |  | 
CC(C)(C)OC(=O)N[C@H]1CCCCC/C=C\[C@@H]2C[C@@]2(C(=O)O)NC(=O)[C@@H]2C[C@@H](OC(=O)Nc3nc4ccccc4s3)CN2C1=O [Compound 139] | < 1000 nM | > 10000 nM |  | 
CC(C)(C)OC(=O)N[C@H]1CCCCC/C=C\[C@@H]2C[C@@]2(C(=O)NS(=O)(=O)c2cnccc2Cl)NC(=O)[C@@H]2C[C@@H](OC(=O)N3Cc4ccccc4C3)CN2C1=O [Compound 108] | < 100 nM | < 10000 nM |  | 
Cc1ccccc1S(=O)(=O)NC(=O)[C@@]12C[C@H]1/C=C\CCCCC[C@H](NC(=O)OC(C)(C)C)C(=O)N1C[C@H](OC(=O)N3Cc4cccc(F)c4C3)C[C@H]1C(=O)N2 [Compound 157] | < 100 nM | < 100 nM |  | 
